# Experimental data from US7531671B2, “Dihydroisoindolones as allosteric modulators of glucokinase” (Janssen Pharmaceutica N.V., priority 2005, dated 2009).
# Target: T1, human liver Glucokinase (GK) (Homo sapiens, UniProt P35557)
# T1 construct: (His)6; made in house; host or cells: Escherichia coli
# T1 sequence (P35557 1-466 isoform P35557-2): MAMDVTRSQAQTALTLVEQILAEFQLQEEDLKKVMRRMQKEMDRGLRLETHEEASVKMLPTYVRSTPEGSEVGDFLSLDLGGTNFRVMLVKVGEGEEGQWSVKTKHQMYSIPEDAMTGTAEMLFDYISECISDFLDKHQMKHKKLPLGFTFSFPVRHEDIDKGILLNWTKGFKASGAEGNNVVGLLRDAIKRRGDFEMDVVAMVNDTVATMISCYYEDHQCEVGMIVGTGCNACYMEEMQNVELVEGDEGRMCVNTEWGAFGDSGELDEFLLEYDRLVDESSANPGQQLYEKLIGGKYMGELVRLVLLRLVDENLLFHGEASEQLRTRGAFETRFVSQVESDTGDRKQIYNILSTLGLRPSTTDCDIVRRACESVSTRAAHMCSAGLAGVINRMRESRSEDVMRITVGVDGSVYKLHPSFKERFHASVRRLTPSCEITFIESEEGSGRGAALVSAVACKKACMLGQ
# Assay: Glucokinase enzyme assay, Liver GK data
# Assay type: biochemical
# Source text: An enzymatic Glucokinase (GK) assay using purified recombinant human liver/pancreas enzyme was used to evaluate the effects of potential small molecule modulators.
# In this assay, GK catalyzes glucose phosphorylation in the presence of ATP. The product of this reaction, glucose-6-phosphate, was then oxidized by an excess of glucose-6-phosphate dehydrogenase to produce gluconate-6-phosphate with concomitant reduction of nicotinamide adenine dinucleotide (NAD). […] Human GK (Liver/Pancreas) was expressed in Escherichia coli as a (His) 6-tagged fusion protein and was purified by metal chelate affinity chromatography. The assay was performed in a final incubation volume of 80 μl in a 96-well clear low UV absorption plates. The incubation mixture consisted of 25 mM HEPES, 2 mM MgSO4, 1 mM dithiothreotol (DTT), 1 mg/ml bovine serum albumin (BSA), 1 mM ATP, 1 mM NAD, and 12 mM glucose, 10 units per ml glucose-6-phosphate dehydrogenase, and +/−300 ng per ml GK. For determination of the affinity (Km) and Vmax, different concentrations of glucose ranging from 0.5 mM to 40 mM were used in the assay; see Grimsby, J., Sarabu, R.; Grippo, J. F.; et. al. Science 2003, 301, 370-373. Production of reduced NAD (Nicotinamide Adenine Dinucleotide) was measured as changes in absorption at 340 nm in 96-well plate reader (Envision model # 2101 Multilabel Plate reader). % Activation @ 50 μM was calculated as the percentage increase in GK activity above the vehicle control with the effective concentration of the compound being 50 μM. EC50% (μM) was calculated as the effective concentration of the compound that produces 50% activation above the vehicle control, and EC100% (μM) was calculated as the effective concentration of the compound that produces 100% activation above the vehicle control.
structure (smiles),measurement,setting,value
"COC(=O)c1ccc(NC(=O)COC2c3ccccc3C(=O)N2Cc2ccccc2)nc1 (stereo not drawn) [Compound 37, 6-[2-(2-Benzyl-3-oxo-2,3-dihydro-1H-isoindol-1-yloxy)-acetylamino]-nicotinic acid methyl ester]",activation at 50 µM,"compound 50 μM, percentage increase in GK activity above vehicle control, 12 mM glucose",256%
same,EC50,concentration producing 50% activation above vehicle control,570 nM
same,EC100%,concentration producing 100% activation above vehicle control,1.57 µM
